From patent publication US10870638B2, “Pyridazinone compound or its salt, and herbicide containing it” (ISHIHARA SANGYO KAISHA, LTD., priority 2016, dated 2020)

How the values were obtained:
Format in all cases: in vivo
Settings in all cases: active ingredient amount 31 g/ha, 14th day after application
[1] = system: barnyardgrass (Echinochloa crus-qalli L.); assay: Test Example 1: foliar treatment, growth inhibition rate on 14th day
Summary of the method: (§1)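 Using a small sprayer, formulated compound in water (0.1 vol % surfactant, 1,000 L/ha) was applied to seedlings grown from seed in upland soil. Fourteen days on, growth state was observed and expressed as percent inhibition from 0 to 100.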

corn (Zea mays L.) [2] = assay: as above
Summary of the method: as §1

[3] = system: crabgrass (Digitaria sanquinalis L.); assay: as above
Summary of the method: as §1

[4] = system: green foxtail (Setaria viridis L.); assay: as above
Summary of the method: (§2)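 Visual 0–100% inhibition scoring (100 = complete kill) at 14 days after foliar treatment of soil-grown seedlings at species-specific leaf stages, with the compound sprayed as a wettable powder or emulsifiable concentrate dilution.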

[5] = system: italian ryegrass (Lolium multiflorum Lam.); assay: as above
Summary of the method: as §1

[6] = system: redroot pigweed (Amaranthus retroflexus L.); assay: as above
Summary of the method: as §1

rice (Oryza sativa L.) [7] = assay: as above
Summary of the method: as §2

[8] = system: soybean (Glycine max Merr.); assay: as above
Summary of the method: as §2

[9] = system: wheat (Triticum aestivum L.); assay: as above
Summary of the method: as §1

[10] = system: wild oat (Avena fatua L.); assay: as above
Summary of the method: as §2

[11] = system: barnyardgrass (Echinochloa crus-qalli L.); assay: Test Example 2: soil application on the day after sowing, growth inhibition rate on 14th day
Text: (§3) Upland field soil was put into a 1/300,000 hectare pot, and seeds of various plants (barnyardgrass (Echinochloa crus-qalli L.), crabgrass (Digitaris sanquinalis L.), green foxtail (Setaria viridis L.), redroot pigweed (Amaranthus retroflexus L.), prickly sida (Sida spinosa L.), velvetleaf (Abutilon theophrasti MEDIC.), rice (Oryza sativa L.), corn (Zea mays L.), wheat (Triticum aestivum L.), soybean (Glycine max Merr.)) were sown. On the day after sowing, wettable powders or emulsifiable concentrates of the compounds of the present invention prepared in accordance with a conventional preparation method, were weighed so as to achieve the prescribed active ingredient amounts, and diluted with water in an amount corresponding to 1,000 liters per 1 hectare, followed by soil application by a small sprayer.
(§4) On the 14th day after the application, the state of growth of the respective plants was visually observed, and the herbicidal effect was evaluated by a growth inhibition rate (%) of 0 (equivalent to the non-treated area) to 100 (complete kill).

corn (Zea mays L.) [12] = assay: as above
Text: as §3, §4

[13] = system: crabgrass (Digitaris sanquinalis L.); assay: as above
Text: as §3, §4

[14] = system: green foxtail (Setaria viridis L.); assay: as above
Text: as §3, §4

[15] = system: prickly sida (Sida spinosa L.); assay: as above
Text: as §3, §4

[16] = system: redroot pigweed (Amaranthus retroflexus L.); assay: as above
Text: as §3, §4

rice (Oryza sativa L.) [17] = assay: as above
Text: as §3, §4

[18] = system: soybean (Glycine max Merr.); assay: as above
Text: as §3, §4

[19] = system: velvetleaf (Abutilon theophrasti MEDIC.); assay: as above
Text: as §3, §4

[20] = system: wheat (Triticum aestivum L.); assay: as above
Text: as §3, §4

[21] = visual, 0 = non-treated, 100 = complete kill

Row | SMILES | Growth inhibition rate (%) Barnyardgrass [1] | Growth inhibition rate (%) Corn (corn (Zea mays L.) [2]) | Growth inhibition rate (%) Crabgrass [3] | Growth inhibition rate (%) Green foxtail [4] | Growth inhibition rate (%) Italian ryegrass [5] | Growth inhibition rate (%) Redroot pigweed [6] | Growth inhibition rate (%) Rice (rice (Oryza sativa L.) [7]) | Growth inhibition rate (%) Soybean [8] | Growth inhibition rate (%) Wheat [9] | Growth inhibition rate (%) Wild oat [10] | Growth inhibition rate (%) Barnyardgrass [11] | Growth inhibition rate (%) Corn (corn (Zea mays L.) [12]) | Growth inhibition rate (%) Crabgrass [13] | Growth inhibition rate (%) Green foxtail [14] | Growth inhibition rate (%) Prickly sida [15] | Growth inhibition rate (%) Redroot pigweed [16] | Growth inhibition rate (%) Rice (rice (Oryza sativa L.) [17]) | Growth inhibition rate (%) Soybean [18] | Growth inhibition rate (%) Velvetleaf [19] | Growth inhibition rate (%) Wheat [20] | also measured
1 | Cc1nn(C)c(=O)c(-c2cc(Oc3ncc(C(F)(F)F)cc3Cl)ccc2OC(F)(F)F)c1O [1-163] | 100% | 100% | 100% | 100% | 99% | 0% | 75% | 0% | 60% | 100% | 100% | 80% | 100% | 100% | 0% | 0% | 40% | 0% | 0% | 0% | 
2 | CCn1ncc(OC(C)=O)c(-c2cc(Oc3nc4ccc(Cl)cc4o3)ccc2C)c1=O [Compound 2-169] | 100% | 98% | 100% | 100% | 85% | 0% | 83% | 40% | 85% | 88% | 70% | 0% | 98% | 98% | 0% | 0% | 0% | 0% | 0% | 0% | 
3 | CCn1nc(C)c(OC(C)=O)c(-c2cc(Oc3nc4ccc(Cl)cc4o3)ccc2C)c1=O [Compound 2-177] | 100% | 83% | 100% | 99% | 98% | 0% | 65% | 30% | 90% | 98% | 90% | 0% | 98% | 90% | 0% | 0% | 30% | 0% | 0% | 0% | 
4 | CC(=O)Oc1c(C)nn(C)c(=O)c1-c1cc(Oc2ncc(C(F)(F)F)cc2Cl)c(C)cc1C [1-152] | 100% | 90% | 99% | 100% | 99% | 0% | 85% | 30% | 88% | 100% | 80% | 10% | 35% | 85% | 0% | 0% | 0% | 10% | 0% | 0% | 
5 | C#CC(=O)Oc1c(C)nn(C)c(=O)c1-c1cc(Oc2cnc3cc(Cl)ccc3n2)ccc1C [Compound 3-82] |  |  |  |  |  |  |  |  |  |  | 99% | 0% | 85% | 99% | 0% | 0% | 0% | 0% | 0% | 0% | Growth inhibition rate (%) Barnyardgrass [1, 21]: 100%; Growth inhibition rate (%) Corn (corn (Zea mays L.) [2]; [21]): 35%; Growth inhibition rate (%) Crabgrass [3, 21]: 98%; Growth inhibition rate (%) Green foxtail [4, 21]: 100%; Growth inhibition rate (%) Italian ryegrass [5, 21]: 98%; Growth inhibition rate (%) Redroot pigweed [6, 21]: 10%; Growth inhibition rate (%) Rice (rice (Oryza sativa L.) [7]; [21]): 93%; Growth inhibition rate (%) Soybean [8, 21]: 0%; Growth inhibition rate (%) Wheat [9, 21]: 98%; Growth inhibition rate (%) Wild oat [10, 21]: 98%
6 | COCOc1c(C)nn(C)c(=O)c1-c1cc(Oc2cnc3cc(Cl)ccc3n2)ccc1C [Compound 3-40] | 99% | 25% | 99% | 99% | 98% | 0% | 85% | 10% | 98% | 98% | 90% | 10% | 10% | 40% | 0% | 0% | 10% | 0% | 0% | 0% | 
7 | Cc1c(Oc2ncc(C(F)(F)F)cc2Cl)cccc1-c1c(O)cnn(CC2CC2)c1=O [1-166] | 95% | 98% | 99% | 100% | 30% | 0% | 10% | 15% | 10% | 93% | 80% | 0% | 95% | 80% | 0% | 0% | 0% | 0% | 0% | 0% | 
8 | Cc1ccc(Oc2ccc(C(F)(F)F)cn2)cc1-c1c(O)c(C)nn(C)c1=O [Compound 2-3] | 85% | 10% | 15% | 85% | 20% | 0% | 10% | 10% | 30% | 35% | 50% | 0% | 80% | 98% | 0% | 0% | 20% | 0% | 0% | 0% | 
